Reference: patent US20250319139A1, “METHODS FOR TREATING NEUROINFLAMMATION” (University of Virginia Patent Foundation, priority 2021, published 2025)

What was measured:
IL-17 [1] = experiment: ELISA of IL-17 in the brain; assay type: in vivo, mouse; details: mice without MCAO; 1 mg/kg by gastric gavage after each valeric sodium 100 mg/kg intraperitoneal injection, 7 days
Method: (§1) Mice were weighed and anesthetized with isoflurane at 24 h after MCAO. Blood samples were obtained from the right heart after thoracotomy. Blood was centrifuged (13,000 g, 4° C.) after it had been placed at 4° C. for 2 h for the collection of serum. After the collection of blood, mice were perfused with 4° C. saline for brain tissue harvesting. The cerebral cortex (anteroposterior: −1.5 to 2.5 mm, mediolateral: 1.0 to 3.0 mm) was dissected out. All dissection procedures were performed on ice.
(§2) IL-10, IL-17, IL-1β and IL-6 in the serum and brain were detected by using ELISA kits (catalog number: M1000B, M1700, MLB00C and D6050, R&D SYSTEM, Inc., Minneapolis, MN, USA) as we described before. The brain tissues were homogenized on ice in the RIPA buffer containing 25 mM Tris-HCl with pH 7.6, 150 mM NaCl, 1% sodium deoxycholate and 0.1% SDS (catalog number: 89901, Thermo Scientific, Rockford, IL, USA) and a protease inhibitor cocktail containing 10 mg/ml aproteinin, 5 mg/ml peptastin, 5 mg/ml leupetin and 1 mM phenylmethane sulfonylfluoride (catalog number: SRE0055, Sigma-Aldrich, St. Louis, MO, USA). The supernatant was collected for ELISA detection after being centrifuged for 20 min (13,000 g, 4° C.) and the protein concentration was determined by the BCA method. Cytokines in the serum and supernatant of brain were detected according to the manufacturer's instruction. The amount of IL-10, IL-17, IL-1β and IL-6 in each sample in the brain was normalized by its protein content.

IL-17 [2] = experiment: ELISA of IL-17 in the serum; assay type: in vivo, mouse; details: mice without MCAO; 1 mg/kg by gastric gavage after each valeric sodium 100 mg/kg intraperitoneal injection, 7 days
Method: as §1, §2

gut microbiota = details: 300 mg/kg intraperitoneal once daily for 5 consecutive days; previous study [20]; cited from earlier work
C57BL/6J mice [3] = experiment: Rotarod test after MCAO; assay type: in vivo, mouse; details: young mice, 100 mg/kg intraperitoneal 1 h before and 6 h after 120-min MCAO; 24 h after MCAO; vs saline
Method: (§3) As we described previously, left MCAO with intravascular suture technique was performed to mice. Briefly, mice were anesthetized with isoflurane and the rectal temperature was maintained at 37±0.5° C. by the feedback-controlled heating system. A monofilament nylon suture (catalog number: 1622-A1, Beijing CiNontech Co. Ltd., Beijing, China) was used to induce the MCAO via the external carotid artery to the left internal carotid artery until slight resistance was felt. Mice were re-anesthetized by isoflurane and the sutures were removed at 60 min (only for the set of experiments of old mice with fecal transplantation; this selection was because of a high mortality rate after a longer MCAO) or 120 min (for all other sets of experiments) after the onset of MCAO.
Rotarod test was performed to evaluate the motor coordination as we described before. All mice received the training for three continuous days before the induction of brain ischemia. The formal test was performed just 24 h before and 24 h after the MCAO. […] The latency and the speed were recorded when the tested mice fell off the rod. […] The speed-latency index, which is latency(s)×speed (rpm), was calculated. The ratio of mean index of the five trials obtained after MCAO and before MCAO was calculated to reflect the change in coordinate function of each mouse.

C57BL/6J mice [4] = experiment: Neurological deficit scores after MCAO; assay type: in vivo, mouse; details: young mice, 100 mg/kg intraperitoneal 1 h before and 6 h after 120-min MCAO; 24 h after MCAO; vs saline
Method: as §3
Neurological deficit scores were tested 24 h after the stroke by a blinded investigator [25, 26]. Briefly, mice were scored as follows: zero, no apparent deficits; one, failure to extend right forepaw fully; two, decreased grip of the right forelimb; three, spontaneous movement in all directions, contralateral circling only if pulled by the tail; four, circling or walking to the right; five, walking only if stimulated; six, unresponsiveness to stimulation and with depressed level of consciousness; and seven, dead.

C57BL/6J mice [5] = experiment: Infarct volume after MCAO; assay type: in vivo, mouse; details: young mice, 100 mg/kg intraperitoneal 1 h before and 6 h after 120-min MCAO; 24 h after MCAO; vs saline
Method: As we described previously, left MCAO with intravascular suture technique was performed to mice. Briefly, mice were anesthetized with isoflurane and the rectal temperature was maintained at 37±0.5° C. by the feedback-controlled heating system. A monofilament nylon suture (catalog number: 1622-A1, Beijing CiNontech Co. Ltd., Beijing, China) was used to induce the MCAO via the external carotid artery to the left internal carotid artery until slight resistance was felt. […]
The infarct volumes were assessed 24 h after MCAO by a blinded investigator after 2,3,5-triphenyltetrazolium chloride staining. […] The average infarct area of the rostral and caudal sides of each slice was calculated. The infarct volume of the brain slice was calculated by multiplying the average infarct area of the slice by the thickness of the slice. […] To correct the cerebral edema and differential shrinkage resulting from brain ischemia and tissue processing, the corrected brain infarct volume was calculated: corrected brain infarct volume in percentage=[right hemisphere volume-(left hemisphere volume-left infarction volume)]×100/right hemisphere volume.

IL-6 [6] = experiment: ELISA of IL-6 in the brain; assay type: in vivo, mouse; details: young mice, 100 mg/kg intraperitoneal 1 h before and 6 h after 120-min MCAO; 24 h after MCAO; vs saline
Method: as §2, with “Mice were weighed and anesthetized with isoflurane at 24 h after MCAO. Blood samples were obtained from the right heart after thoracotomy. Blood was centrifuged (13,000 g, 4° C.) after it had been placed at 4° C. for 2 h for the collection of serum. After the collection of blood, mice were perfused with 4° C. saline for brain tissue harvesting. The cerebral cortex (anteroposterior: -1.5 to 2.5 mm, mediolateral: 1.0 to 3.0 mm) was dissected out. All dissection procedures were performed on ice. IL-10,” for “IL-10,”, “[…],” for “peptastin,”, “The amount of IL-10, IL-17, IL-1β and IL-6 in each sample in the brain was normalized by its protein content.” left out

IL-1β [7] = experiment: ELISA of IL-1β in the brain; assay type: in vivo, mouse; details: young mice, 100 mg/kg intraperitoneal 1 h before and 6 h after 120-min MCAO; 24 h after MCAO; vs saline
Method: as §2, with “Mice were weighed and anesthetized with isoflurane at 24 h after MCAO. Blood samples were obtained from the right heart after thoracotomy. Blood was centrifuged (13,000 g, 4° C.) after it had been placed at 4° C. for 2 h for the collection of serum. After the collection of blood, mice were perfused with 4° C. saline for brain tissue harvesting. The cerebral cortex (anteroposterior: -1.5 to 2.5 mm, mediolateral: 1.0 to 3.0 mm) was dissected out. All dissection procedures were performed on ice. IL-10,” for “IL-10,”, “[…],” for “peptastin,”, “The amount of IL-10, IL-17, IL-1β and IL-6 in each sample in the brain was normalized by its protein content.” left out

[8] = Valeric acid in the blood by ELISA (pilot dosage experiment); assay type: in vivo, mouse; details: young mice, 100 mg/kg intraperitoneal twice at an interval of 7 h; blood 3 h after second injection; pilot study
Method: A pilot experiment was performed to determine the dosage of valeric acid used in this study. Eight-week old mice were divided into two groups: Y-Saline group that received two intraperitoneal 100 μl normal saline injections at an interval of 7 h, and Y-Valeric group that received two intraperitoneal 100 mg/kg in 100 μl valeric sodium injections at an interval of 7 h. One group of 18-month old mice that was labeled O-Saline received two intraperitoneal 100 μl normal saline injections at an interval of 7 h. Blood was harvested 3 h after the second injection of valeric sodium or normal saline to measure valeric acid.
Valeric acid in the blood harvested from the experiment to determine the dosage of valeric acid injected intraperitoneally was measured by using an ELISA kit (catalog number: JM-12270M1, Jingmei Biotechnology, Jiangsu, China) following the manufacturer's instructions.

C57BL/6J mice [9] = experiment: Novel object recognition test, young adult mice; assay type: in vivo, mouse; details: surgery mice; intracerebroventricular 10 μg/kg at 0, 24, 48 and 72 h after surgery; vs solvent
C57BL/6J mice [10] = experiment: Barnes maze test, young adult mice; assay type: in vivo, mouse; details: surgery mice; intracerebroventricular 10 μg/kg at 0, 24, 48 and 72 h after surgery; vs solvent
IL-6 [11] = experiment: IL-6 in the hippocampus by ELISA; assay type: in vivo, mouse; details: intracerebroventricular injection at surgery; hippocampus 48 h after surgery
Method: (§4) IL-1β, IL-6, C3 and GDNF in the hippocampus were detected by using ELISA kits. For testing the IL-1β, IL-6 and GDNF, brain tissues were homogenized on ice in the RIPA buffer containing 25 mM Tris-HCl with pH 7.6, 150 mM NaCl, 1% sodium deoxycholate, 0.1% SDS and a protease inhibitor cocktail containing 10 mg/ml aproteinin, 5 mg/ml peptastin, 5 mg/ml leupetin and 1 mM phenylmethane sulfonylfluoride. For C3 testing, brain tissues were homogenized on ice in the PTR buffer (supplied in the kit). The supernatant was collected for ELISA detection after the homogenate was centrifuged at 13,000 g for 20 min at 4° C. and the protein concentration was determined by the BCA protein assay (Bio-Rad, Hemel Hempstead, Herts, UK). IL-1β, IL-6, C3 and GDNF in supernatant of brain were detected according to the manufacturer's instruction for ELISA, and the amount of them in each sample in the brain was normalized by its total protein content and was expressed as pg/mg protein.

IL-1β [12] = experiment: IL-1β in the hippocampus by ELISA; assay type: in vivo, mouse; details: intracerebroventricular injection at surgery; hippocampus 48 h after surgery
Method: as §4

C3 = C3 in the hippocampus by ELISA; assay type: in vivo, mouse; details: intracerebroventricular injection at surgery; hippocampus 48 h after surgery
Method: as §4

With C[C@]1(C(=O)N(CCCC(=O)O)Cc2cccc(Cl)c2)CCN1C(=O)c1csc2ccccc12 [GLPG-0974] the “increase of IL-17 in the brain (cerebral cortex) caused by valeric acid” value (IL-17 [1]) was “blocked the increase” and the “increase of IL-17 in the blood caused by valeric acid” value (IL-17 [2]) was “blocked the increase”.

For Cc1nnc(SCC2=C(C(=O)O)N3C(=O)[C@@H](NC(=O)Cn4cnnn4)[C@H]3SC2)s1 [cefazolin], the “gut microbiota in the colon by 16S rRNA analyses” value (gut microbiota) is listed as “almost undetectable level”.

With CCCCC(=O)[O-].[Na+] [valeric sodium] the performance on rotarod (C57BL/6J mice [3]) was “poorer performance”, the neurological deficit scores (C57BL/6J mice [4]) was “worse” and the infarct volume (C57BL/6J mice [5]) was “larger”. For the same molecule, the “IL-6 in the ischemic penumbral brain tissues” value (IL-6 [6]) was “increased”, the “IL-1β in the ischemic penumbral brain tissues” value (IL-1β [7]) was “increased” and the “concentrations of valeric acid in the blood” value [8] was “a level similar to that in the old mice”.

In the case of NC(N)=NCCC[C@H](NC(=O)COCC(c1ccccc1)c1ccccc1)C(=O)O [SB290157], the “performance in novel object recognition test” value (C57BL/6J mice [9]) is reported as “improved the performance” and the “time to identify target box in Barnes maze” value (C57BL/6J mice [10]) is reported as “took less time”.

B1: GDNF: recombinant mouse GDNF (glia-derived nerve factor) (protein, UniProt P48540 78-211, looked up)
Glial cell line-derived …: SPDKQAAALPRRERNRQAAAASPENSRGKGRRGQRGKNRGCVLTAIHLNVTDLGLGYETKEELIFRYCSGSCESAETMYDKILKNLSRSRRLTSDKVGQACCRPVAFDDDLSFLDDNLVYHILRKHSAKRCGCI
With B1 the “IL-6 levels in the hippocampus after surgery” value (IL-6 [11]) was “reduced”, the “IL-1β levels in the hippocampus after surgery” value (IL-1β [12]) was “reduced” and the “C3 levels in the hippocampus after surgery” value (C3) was “reduced”.

B2: heat-inactivated GDNF: heat-denatured (5 min at 100° C.) GDNF solution (protein, UniProt P48540 78-211, looked up)
Glial cell line-derived …: SPDKQAAALPRRERNRQAAAASPENSRGKGRRGQRGKNRGCVLTAIHLNVTDLGLGYETKEELIFRYCSGSCESAETMYDKILKNLSRSRRLTSDKVGQACCRPVAFDDDLSFLDDNLVYHILRKHSAKRCGCI
modifications: heat-denatured
notes: heat-denatured (5 min at 100° C.) GDNF solution
With B2 the “IL-6 levels in the hippocampus after surgery” value (IL-6 [11]) was “not” and the “C3 levels in the hippocampus after surgery” value (C3) was “not”.
